Measurements reported in paper PMC10082216 (Nature Communications, 2023).

Experiment: Population PK modeling and simulation of TD-6450 (NONMEM)
Set-up: species or system human
Text: Data were pooled from two healthy volunteer studies, one single ascending dose (SAD) and the other multiple ascending dose (MAD). Observed concentration data were transformed into their natural logarithms and evaluated using nonlinear mixed-effects modeling in NONMEM v7.4 (Icon Development Solution, Ellicott City, MD). Pirana v3.0, Perl-speaks-NONMEM (PsN) v4.8.1, and Xpose version 4.7.1, were used for automation, model evaluation, and diagnostics during the model building process.
Different structural distribution models were evaluated (1-, 2-, and 3-compartment models) as well as different absorption models (first-order absorption and transit-compartment (n = 1–10) models). Relative bioavailability was fixed to unity for the population to evaluate inter-individual variability and the influence of covariates in the same parameter. […] Other biologically plausible covariate-parameter relationships (i.e. sex and age on all parameters, dose amount and duration of treatment on elimination clearance, absorption rate and relative bioavailability, concomitant food intake on absorption rate and relative bioavailability, and creatinine clearance on elimination clearance) were evaluated with a stepwise addition (p < 0.05) and elimination (p < 0.001) approach. All significant covariates in the forward step were evaluated with both linear and nonlinear functions, and the best-performing model was retained for the backward elimination step. Pharmacokinetic parameters were assumed to be log-normally distributed, and inter-individual variability (IIV) and inter-occasion variability (IOV) were implemented as exponential functions. Estimated IIV below 10% was removed in the final model, and IOV was estimated only on absorption parameters.
Model fit was evaluated primarily by the objective function value (OFV; calculated by NONMEM as proportional to −2 × log-likelihood of the data). Model discrimination between two hierarchical models was determined by a likelihood ratio test, based on the Chi-square distribution of the OFV (i.e. p-value < 0.05 corresponding to ΔOFV > 3.84, at a 1 degree of freedom difference). Goodness-of-fit was used to evaluate the descriptive performances of developed models. Prediction- and variability-corrected visual predictive checks (pvcVPC, n = 2000 simulations) were used to assess the predictive performance of developed models.

[1] = random effect, variance estimate
[2] = residual error, variance estimate
[3] = typical individual 80 kg, steady-state, high oral dose, fasting

What does the source list for `CNC(=O)N1C[C@@H](C)N(c2ccc(C(=O)Nc3ccc(-c4ccc(-c5c[nH]c([C@@H]6CCCN6C(=O)[C@@H](NC(=O)OC)C(C)C)n5)cc4)c(OC(F)(F)F)c3)cn2)C[C@@H]1C` [TD-6450]?
decrease in relative bioavailability per 100 mg increase in dose (above 240 mg (240 to 500 mg)): 24.7%; Dose on CL/F, population estimate (%RSE) (covariate relationship): 1.35 (17.9); Dose on F, SIR median (95%CI) (covariate relationship): -0.241 (-0.207 to -0.284); Dose on F, population estimate (%RSE) (covariate relationship): -0.247 (7.92); Food on F, SIR median (95%CI) (covariate relationship): 0.683 (0.475 to 0.885); Food on F, population estimate (%RSE) (covariate relationship): 0.685 (15.0); Food on MTT, SIR median (95%CI) (covariate relationship): 0.927 (0.696 to 1.19); Food on MTT, population estimate (%RSE) (covariate relationship): 0.933 (10.3); Time dep. F, SIR median (95%CI) (covariate relationship): 0.441 (0.355 to 0.569); Time dep. F, population estimate (%RSE) (covariate relationship): 0.439 (12.5); higher bioavailability when administered with food (food covariate): 68.5%; longer absorption time when administered with food (food covariate): 93.3%; IIV CL/F, population estimate (%RSE) [1]: 0.0148 (21.5); IIV F, SIR median (95%CI) [1]: 0.151 (0.110 to 0.207); IIV F, population estimate (%RSE) [1]: 0.150 (16.7); IIV MTT, SIR median (95%CI) [1]: 0.0683 (0.0551 to 0.0830); IIV MTT, population estimate (%RSE) [1]: 0.0683 (10.3); IIV Vc/F, SIR median (95%CI) [1]: 0.0394 (0.0246 to 0.0514); IIV Vc/F, population estimate (%RSE) [1]: 0.0391 (17.3); IIV Vp/F, SIR median (95%CI) [1]: 0.0719 (0.0568 to 0.0919); IIV Vp/F, population estimate (%RSE) [1]: 0.0713 (12.9); IOV F, SIR median (95%CI) [1]: 0.0622 (0.0445 to 0.0794); IOV F, population estimate (%RSE) [1]: 0.0631 (13.9); IOV MTT, SIR median (95%CI) [1]: 0.0870 (0.0613 to 0.118); IOV MTT, population estimate (%RSE) [1]: 0.0866 (17.1); RUV, SIR median (95%CI) [2]: 0.0568 (0.0520 to 0.0624); RUV, population estimate (%RSE) [2]: 0.242 (4.48); CL/F, SIR median (95%CI) (sampling importance resampling): 12.1 (10.8 to 13.6) L/h; MTT, SIR median (95%CI) (sampling importance resampling): 2.30 (2.13 to 2.50) h; Q/F, SIR median (95%CI) (sampling importance resampling): 28.5 (22.5 to 35.5) L/h; Vc/F, SIR median (95%CI) (sampling importance resampling): 539 (464 to 626) L; Vp/F, SIR median (95%CI) (sampling importance resampling): 445 (384 to 513) L; CL/F, population estimate (%RSE) [3]: 12.1 (6.19) L/h; MTT, population estimate (%RSE) [3]: 2.30 (4.14) h; Q/F, population estimate (%RSE) [3]: 28.4 (11.4) L/h; Vc/F, population estimate (%RSE) [3]: 537 (7.89) L; Vp/F, population estimate (%RSE) [3]: 444 (7.36) L
